Values joined by “and” are separate entries in the source; they are usually repeats but may differ in a detail not shown here. Identical values can stand only once. Like-named read-outs stand apart in the source and are kept apart here.
Key:
Th17-lymphocytes = assay: Measurement of Th17-lymphocytes by flow cytometry; type: cell-based, human
IL-17 release = IL-17 release from human mononuclear cells in whole blood stimulated with cytokines; type: cell-based
A549 cells [1] = assay: IL-8 release from A549 cells, spontaneous or TGFbeta-induced; type: cell-based; conditions: TGFbeta stimulation, 24 h, 10 μg/ml E64D
[2] = tested on: THP1 cells (macrophage-like cell line); assay: IL-8 release from stimulated THP1 cells; type: cell-based; conditions: IL-1 or TNF/IL-1 stimulated cells, 24 hours
Experimental: This stimulation corresponds to a pro-inflammatory response. The supernatants were then removed, and the IL-8 release was measured.

A549 cells [3] = type: cell-based
[4] = Nebulizer test / cascade impactor measurements with M-neb dose+; type: physicochemical
Wistar rats = assay: Dose range finding study, 14 days nose-only inhalation; type: in vivo; conditions: for lung with a spongy consistency (animals affected): females
From the text: The purpose of this study was to perform a dose range finding (DRF) study using 14 days nose-only-inhaled Aloxistatin in rats. Possible side effects of Aloxistatin were characterized based on clinical observations, body weight, hematology, clinical pathology, macroscopic examination and histopathology of selected organs (respiratory tract, heart, kidneys, liver and spleen). Additionally, the setup of chemical analysis method for toxicokinetic analysis was established.
For the study, 64 Wistar rats [Crl:Wistar(Han)] received the test item at doses of 22.67, 68 or 227 μg/kg bw for 14 consecutive days via nose-only inhalation. Ethanol ≥96% was used as vehicle. Animals of the main study were sacrificed on […].
All animals were clinically observed in their cages at least once a day. Individual body weights were determined twice weekly. Blood samples for hematology and clinical chemistry were withdrawn before the exposure and on day 14. Necropsy, including a macroscopic evaluation of selected organs, was performed on day 15 or day 29 followed by histopathology of preselected organs. All macroscopic changes were recorded. Blood and lung sampling for setup of chemical analysis method for toxicokinetic analysis was performed on day 1 and 15 and upon sacrifice (day 2 and 15), respectively.

SARS-CoV-2 [5] = type: cell-based; conditions: HEK293-ACE2, MOI 5, 100 μM
SARS-CoV-2 [6] = type: cell-based; conditions: A549, MOI 5, 100 μM
pseudovirus = assay: Pseudovirus inoculation of human ACE2 transgenic mice, bioluminescence assay; type: in vivo; conditions: pre-treated via tail vein injection 2 days prior to virus inoculation; 1 day post infection
fibroblasts = type: cell-based
Vero e6-cells = conditions: concentrations up to 100 μM
Th17 differentiation = conditions: rats; cited from earlier work
Mouse-Coronavirus = Mouse-Coronavirus model systems; cited from earlier work
SARS-CoV-2 [7] = conditions: E64d added to the TMPRSS2 inhibitor Camostat; cited from earlier work
physchem = conditions: organic solvent or mixture
[8] = in vivo, po; cited from earlier work
[9] = cited from earlier work
[10] = tested on: human peripheral blood cells (PBI); assay: Chromosome aberration test
[11] = tested on: Salmonella typhimurium strains TA 1535, TA 1537, TA 98, TA 100, and the Escherichia coli strain WP2 uvrA; assay: Reverse mutation assay (plate incorporation test)
rats = assay: Toxicology study, 14-day inhalational applications; conditions: inhalation on 14 consecutive days
mice = conditions: cited from earlier work
[12] = 22.67, 68 or 227 μg/kg bw, 14 days nose-only inhalation

Q: Which “polarization of Th2-lymphocytes” value (Th17-lymphocytes) does the source give for `CCOC(=O)[C@H]1O[C@@H]1C(=O)N[C@@H](CC(C)C)C(=O)NCCC(C)C` [E64D, aloxistatin] here?
A: The value was “polarize Th2-lymphocytes into Th1-lymphocytes”.

Q: And the Th1 cells (Th17-lymphocytes; co-incubation with E64D)?
A: Its Th1 cells is “dose-dependently up-regulates”.

Q: And the “Th17 and Th17.1 cells” value (Th17-lymphocytes; co-incubation with E64D)?
A: The value was “dose-dependently down-regulates”.

Q: What about the Treg lymphocytes (Th17-lymphocytes; co-incubation with E64D) of the same compound?
A: Its Treg lymphocytes is “upregulation of Treg lymphocytes”.

Q: And the “percentage of Th17 cells” value (Th17-lymphocytes; stimulation with IC-beads, with or without cytokine mix, whole blood lymphocytes and T-lymphocytes from bronchoalveolar lavage)?
A: The value was “reduces the percentage of Th17 cells”.

Q: And the “release of the cytokine IL-17” value (IL-17 release)?
A: Its value is “can be inhibited”.

Q: What about the “TGFbeta-induced IL-8 release” value (A549 cells [1]) of the same compound?
A: Its value is “block the induction almost completely”.

Q: And the IL-8 release [2]?
A: The IL-8 release was “clearly lowers the IL-8 release”.

Q: What about the “TGF-beta induced release of alpha-smooth muscle actin (aSMA)” value (A549 cells [3]) of the same compound?
A: The value was “inhibits the TGF-beta induced release”.

Q: And the “TGF-beta induced release of collagen 1” value (A549 cells [3])?
A: Its value is “inhibits the TGF-beta induced release”.

Q: And the TGFbeta-induced collagen production (A549 cells [3])?
A: Its TGFbeta-induced collagen production is “lowers the TGFbeta-induced collagen production of A549 in a dose-dependent manner”.

Q: What about the “TGFbeta-induced collagen release at highest dose” value (A549 cells [3]) of the same compound?
A: The value was “almost goes back to the initial value”.

Q: And the “aerosol output (fraction of actually inhaled E64d)” value ([4]; 0.34 mg/ml solution)?
A: Its value is 80%.

Q: And the “aerosol output (fraction of actually inhaled E64d)” value ([4]; 34 mg/ml solution)?
A: Its value is 63%.

Q: And the “fine particle fraction (<5 μm)” value ([4]; all concentrations tested (0.34, 3.4 and 34 mg/ml))?
A: Its value is over 95%.

Q: And the aerosol release rate ([4]; concentration of the solution 340 ug/ml)?
A: The aerosol release rate was 0.108 mg/min.

Q: And the aerosol release rate ([4]; concentration of the solution 3.4 mg/ml)?
A: Its aerosol release rate is 1 mg/min.

Q: What about the aerosol release rate ([4]; concentration of the solution 34 mg/ml) of the same compound?
A: The aerosol release rate was 8.7 mg/min.

Q: And the “cumulative active compound deposition” value ([4]; particle size distribution about 0.5-3 μm, impactor assays)?
A: Its value is over 99%.

Q: And the body weight (Wistar rats; [12])?
A: Its body weight is “no statistical differences between the groups”.

Q: What about the “changes in clinical chemistry parameters” value (Wistar rats; [12]) of the same compound?
A: Its value is “considered incidental”.

Q: And the clinical observations (Wistar rats; [12])?
A: Its clinical observations is “no clinical observations were noted”.

Q: And the mortality (Wistar rats; [12])?
A: The mortality was “No animal was found dead or killed moribund”.

Q: What about the “lung with a spongy consistency (animals affected)” value (Wistar rats; low dose group) of the same compound?
A: The value was 1/5.

Q: What about the “lung with a spongy consistency (animals affected)” value (Wistar rats; medium dose group) of the same compound?
A: The value was 1/5.

Q: And the “slightly enlarged lung-associated lymph nodes (animals affected)” value (Wistar rats; male animals, medium dose group, macroscopic examination)?
A: Its value is 2/5.

Q: And the histopathological examination (Wistar rats; respiratory tract, lymph nodes, heart, kidneys, liver, spleen, after 14 days and after 14 days recovery)?
A: Its histopathological examination is “no treatment-related findings were detected”.

Q: And the cell lysis (SARS-CoV-2 [5])?
A: The cell lysis was “effectively inhibited”.

Q: What about the “virus replication of SARS-CoV-2” value (SARS-CoV-2 [5]) of the same compound?
A: Its value is “effectively inhibited”.

Q: What about the cell lysis (SARS-CoV-2 [6]) of the same compound?
A: Its cell lysis is “effectively inhibited”.

Q: And the “virus replication of SARS-CoV-2” value (SARS-CoV-2 [6])?
A: The value was “effectively inhibited”.

Q: And the “bioluminescence activity (virus replication)” value (pseudovirus)?
A: The value was “decrease in bioluminescence activity”.

Q: What about the “IL-17 induced proliferation and differentiation of fibroblasts” value (fibroblasts) of the same compound?
A: Its value is “inhibiting the IL-17 induced proliferation and differentiation of fibroblasts”.

Q: And the cytotoxicity (Vero e6-cells)?
A: Its cytotoxicity is “non-toxic”.

Q: What about the Th17 differentiation (Th17 differentiation) of the same compound?
A: Its Th17 differentiation is “suppresses Th17 differentiation in a dose-dependent manner”.

Q: What about the virus replication (Mouse-Coronavirus) of the same compound?
A: Its virus replication is “effective inhibition of virus replication”.

Q: And the “inhibition of virus entry” value (SARS-CoV-2 [7])?
A: Its value is “additive efficacy”.

Q: And the solubility (physchem)?
A: Its solubility is ≤ 68000 µg/mL and ≤ 199000 µM.

Q: What about the dose absorbed [8] of the same compound?
A: The dose absorbed was “at least 60%”.

Q: And the “serum AST and ALT activities” value ([9]; rat, in vivo)?
A: The value was “rose dramatically”.

Q: And the “time of minimum liver GSH level after administration” value ([9]; rat, in vivo)?
A: The value was 5 h.

Q: What about the “liver glutathion (GSH) levels” value ([9]; rats) of the same compound?
A: Its value is “obvious drop”.

Q: And the “aberrant cells (gaps excluded)” value ([10]; after 4 h of treatment, both without and with S9-mix)?
A: Its value is “only one aberrant cell”.

Q: And the structural chromosome aberrations ([10]; treated PBL)?
A: Its structural chromosome aberrations is “nearly complete absence of structural chromosome aberrations”.

Q: What about the “precipitation in the overlay agar on the incubated agar plates” value [11] of the same compound?
A: Its value is 5000 μg/plate.

Q: What about the “toxic effects (reduction in the number of revertants)” value ([11]; all strains, with and without metabolic activation, up to 5000 μg/plate) of the same compound?
A: Its value is “No toxic effects”.

Q: And the “increase in revertant colony numbers” value ([11]; five tester strains, any dose level, with and without S9 mix)?
A: Its value is “No substantial increase”.

Q: What about the mutagenicity ([11]; reverse mutation assay conclusion) of the same compound?
A: Its mutagenicity is “non-mutagenic”.

Q: And the “No-Observed-Adverse-Effect-Level (NOAEL), pulmonary dose” value (rats)?
A: The value was 413 μg/kg bw.

Q: Which emphysematous changes (mice) does the source give for `CC(C)C[C@H](NC(=O)[C@H]1O[C@@H]1C(=O)O)C(=O)NCCCCN=C(N)N` [E64] here?
A: The emphysematous changes was “markedly attenuated emphysematous changes”.
